Measured values taken from article PMC5594551, “Heterogeneous drug penetrance of veliparib and carboplatin measured in triple negative breast tumors” (Breast Cancer Research : BCR, 2017).
Like-named read-outs stand apart in the source and are kept apart here.

Key:
[1] = Veliparib spatial distribution by MALDI-MSI in TNBC xenograft tumor and muscle sections; assay type: in vivo, beige SCID mice
Protocol: (§1) Thirty-nine mice were euthanized approximately 3 h after the last dose of veliparib and 24 h after the last dose of carboplatin; two mice used in the DCE-MRI pilot were euthanized 1.5 h after single-dose administration of veliparib and carboplatin (Fig. 1). Bilateral xenograft tumors and liver and muscle (quadriceps) tissues were harvested. Tissues were cut into three pieces and either embedded in optimum cutting temperature (OCT) formulation or were directly snap frozen in liquid-nitrogen-cooled isopentane and stored at − 80 °C until analysis. […] A separate fresh-frozen portion of each tissue per animal was ground for quantification of veliparib and carboplatin by LC-MS. […]
Heterogeneity of drug distribution of veliparib in the tissues evaluated by MALDI-MSI was assessed by comparing the relative standard deviation in the whole tissue of muscle and tumor cells, and by comparing the mean pixel intensity of each immunohistochemically (IHC)-defined region of interest capturing the whole tumor region, and regions of cellularity/necrosis using one-way ANOVA. […]
By spiking different concentrations of veliparib on placebo treated mouse TNBC xenograft tissues, a rough estimate of the detection range of veliparib was determined to be 100 fmol-100 pmol absolute drug amount, Figure S2 left) with saturation of the signal occurring above 1 nmol/ μL. […]

[2] = Veliparib quantified by LC-MS in plasma, TNBC xenograft tumor, muscle and liver of mice; assay type: in vivo, beige SCID mice; conditions: for Median conc. (RSE %) / concentration at 3 h: LC-MS; for concentration at 3 h: beige SCID (Fox Chase), mouse, read-out: Median conc. (RSE %)
Protocol: Forty-one beige DF mice with severe combined immunodeficiency (SCID) (Fox Chase, strain R035948:1) were implanted with 10^6 MDA-MB-231 (N = 10), HCC70 N = 21) or MDA-MB-436 (N = 10) TNBC cells obtained from the ATCC bilaterally in the mammary fat pads (Fig. 1). When the TNBC xenograft tissue size exceeded 200 mm^3, the mice were randomized across the treatment cohorts. Animals were randomized into veliparib low dose (20 mg/kg), veliparib high dose (60 mg/kg) or placebo + C, introduced via oral gavage three times daily for 3 days (all but the two DCE-MRI study mice). Carboplatin at 60 mg/kg was administered intravenously on day 1 and day 2. Blood samples (50 μL) were obtained at day 2 in ethylenediaminetetraacetic acid (EDTA) containing vials at 0.6, 3 and 5 h after veliparib and carboplatin dose in 15 mice (all xenograft models, Fig. 1). The procedures were approved by the Institutional Animal (IACUC AN092211-01D).
as §1, with “LC-MS. Method development and details of the techniques are described in Additional file 1a-c.” for “LC-MS.”
c) Technical aspects of the LC-MS method development.
Plasma samples (50 μl ) were prepared using protein precipitation with acetonitrile. Small tumor samples (average 44 mg) were pulverized using Biopulverizer R (Biospec Bartlesville, OK, USA). Volume and weight of the pulverized tumor was determined. Veliparib was then extracted using cell lysis buffer (Cell Signaling Technology, Danvers, MA,USA), complemented with Halt Protease & Phosphatase (ThermoScientific, Atlanta, GA,USA). Protein precipitation of the tissue lysates was performed with acetonitrile. Oxaliplatin (Tzchem, Framingham, MA,USA) and iniparib (Sigma-Aldrich, Milwaukee, USA) were used as internal standards.
Veliparib/carboplatin quantification:
Carboplatin and veliparib were measured using LC-MS (Applied Biosystem Systems 3200 LC-MS/MS, Toronto, Canada), with electrospray ionization (ESI), using a Xterra® MS C18 3.5 µm column (Waters, Milford, MA, USA). The mobile phase contained 50:50 methanol and water with 0.1%, formic acid.
Concentration of veliparib in tissues were calculated in mg/g and transferred to mg/L by estimating the average density of the livers, muscles and tumors.
Figure S9: Example graph of mass spectrum of veliparib and carboplatin and the internal standards in plasma […]
Method development/validation
The limit of quantification was 15 ng/ml for veliparib and 156 ng/ml for carboplatin. The calibration curves […]
Figure S10) Repetition quantification from two tissue sections of the same animal to show consistence of results when repeating veliparib extraction (performed by LCMS).

[3] = test system: metastatic BRCA-mutated breast cancer; design: method as in ref [52] = [52]; 52. Somlo G Phase II trial of single agent PARP inhibitor ABT-888 (veliparib [vel]) followed by postprogression therapy of vel with carboplatin (carb) in patients (pts) with stage BRCA-associated meta; conditions: veliparib 400 mg BID until disease progression; ref [52]; cited from earlier work

Ion intensity tumor/muscle (RSE %) ([1]; cellular tumors (ROI)): 1.01 (85%)
Xenograft tissues below the limit of detection by LC-MS ([2]; 20 mg/kg dose): 42%
Median conc. (RSE %) ([2]; MDA-MB-231 xenograft tissue, 60 mg/kg): 0.27 (18) mg/L
Median conc. (RSE %) ([2]; MDA-MB-436 xenograft tissue, 60 mg/kg): 0.32 (26) mg/L
Median conc. (RSE %) ([2]; TNBC xenograft tissue (all cell lines), 20 mg/kg, 3 h after last dose): 0.12 (31) mg/L
Median conc. (RSE %) ([2]; TNBC xenograft tissue (all cell lines), 60 mg/kg, 3 h after last dose, 60 mg/kg): 0.36 (12) mg/L
concentration at 3 h ([2]; oral, liver, 60 mg/kg, 3 h after last dose): 1770 ng/mL
concentration at 3 h ([2]; oral, plasma, veliparib 60 mg/kg three times daily, 3 h post dose): 860 ng/mL
concentration at 3 h ([2]; tumor (MDA-MB-231 xenograft), oral, MDA-MB-231 xenograft tissue, 20 mg/kg): 10 ng/mL
concentration at 3 h ([2]; tumor (MDA-MB-231 xenograft), oral, MDA-MB-231 xenograft tissue, 60 mg/kg): 270 ng/mL
concentration at 3 h ([2]; tumor (MDA-MB-436 xenograft), oral, MDA-MB-436 xenograft tissue, 20 mg/kg): 50 ng/mL
concentration at 3 h ([2]; tumor (MDA-MB-436 xenograft), oral, MDA-MB-436 xenograft tissue, 60 mg/kg): 320 ng/mL
concentration at 3 h ([2]; tumor (TNBC xenograft, oral), TNBC xenograft tissue (all cell lines), 60 mg/kg, 3 h after last dose): 360 ng/mL
Median conc. (RSE %) ([2]; liver, 20 mg/kg, 3 h after last dose): 0.47 (20) mg/L
Median conc. (RSE %) ([2]; liver, 60 mg/kg, 3 h after last dose, 60 mg/kg): 1.77 (14) mg/L
Median conc. (RSE %) ([2]; muscle, 20 mg/kg, 3 h after last dose): 0.12 (70) mg/L
Median conc. (RSE %) ([2]; muscle, 60 mg/kg, 3 h after last dose): 0.47 (47) mg/L
Median conc. (RSE %) ([2]; plasma, veliparib 20 mg/kg three times daily, 3 h post dose): 0.19 (10) mg/L
Median conc. (RSE %) ([2]; plasma, veliparib 60 mg/kg three times daily, 3 h post dose): 0.86 (11) mg/L
SMILES: C[C@]1(c2nc3c(C(N)=O)cccc3[nH]2)CCCN1 [veliparib]
Ion intensity tumor/muscle (RSE %) ([1]; necrotic tumors (ROI)): 1.63 (70%)
Median conc. (RSE %) ([2]; HCC70 xenograft tissue, 60 mg/kg): 0.43 (16) mg/L
concentration at 3 h ([2]; tumor (HCC70 xenograft), oral, HCC70 xenograft tissue, 20 mg/kg): 130 ng/mL
concentration at 3 h ([2]; tumor (HCC70 xenograft), oral, HCC70 xenograft tissue, 60 mg/kg): 430 ng/mL
Patients with partial response [3]: 20%
